The results in this text go back to patent publication US20130011845A1, “MICRORNA REGULATING THE INSULIN SIGNALING PATHWAY, AND METHOD FOR SCREENING MATERIAL FOR CONTROLLING THE ACTION OF A TARGET THEREOF” (SNU R & DB Foundation, priority 2009, published 2013).

The test system of this data set is 3′UTR of fog2 mRNA. The data set can be described thus: luciferase assay with wild-type or mutated miR-200 target sites of FOG2 3′UTR. The format is cell-based, human. The note with it: Hela cell lines, compared to siGFP. The protocol: The inventors examined whether human miR-200 family miRNAs regulate the expression by directly binding to 3′ UTR of fog2 mRNA in the same manner as drosophila miR-8 miRNA regulates the expression by directly binding to 3′ UTR of ush mRNA. Specifically, in order to obtain cDNA of FOG2, represented by SEQ ID: 110, from K562 cell lines, total RNA was extracted using RNeasy mini kit (QIAGEN, US). Then, 1 μg of total RNA and 1 μl of Oligo-dT (Invitrogen, US) were charged with up to 50 μl of distilled water, and placed into SuperScript First-Strand Synthesis System (Invitrogen, US), followed by RT-PCR reaction. […] By using pCK-FOG2, primers noted in Table 8, and QuickChange Site-Directed Mutagenesis kit, one (FOG2 m1, FOG2 m2, FOG2 m3), two ((FOG2 m12, FOG2 m23) or three (FOG2 m123) mutants were introduced into three miR-200 target sites of FOG2 3′UTR. Hela cell lines were transfected with wild-type FOG2(FOG2 wt), FOG2 ml, FOG2 m2, FOG2 m3, FOG2 m12, FOG2 m23 or FOG2 m123, together with renilla luciferase expression vector and synthesized siGFP, miR-141/200a or miR-200b/c/429. Then, the activity of luciferase was measured in the same manner as described in Example 8-2. The synthesized miRNA include a mixture of the same levels of miRNAs including respective seed sequences. […]

Regarding “5′-UAACACUGUCUGGUAACGAUGU-3′ (listed as RNA, chemistry not given here) [miR-200a]”, the “expression of luciferase, FOG2 3′UTR” value is reported as “suppressed the expression of luciferase, albeit less effectively than the other members did”.
Take “5′-UAACACUGUCUGGUAAAGAUGG-3′ (listed as RNA, chemistry not given here) [miR-141]”: the “expression of luciferase, FOG2 3′UTR” value was “suppressed the expression of luciferase, albeit less effectively than the other members did”.
